Assay [1] has as its target RAF proto-oncogene serine/threonine-protein kinase (Homo sapiens) (UniProt P04049). The following applies: at 1 µM.
In assay [2] the target is Vascular endothelial growth factor receptor 2 (Homo sapiens, UniProt P35968). The following applies: at 1 µM.
Assay [3] addresses Misshapen-like kinase 1 (Homo sapiens, UniProt Q8N4C8). The following applies: at 1 µM.
The target of assay [4] is Vascular endothelial growth factor receptor 3 (Homo sapiens, UniProt P35916). The following applies: at 1 µM.
Assay [5] has as its system Platelet-derived growth factor receptor alpha (Homo sapiens), P16234 [V561D]. The following applies: at 1 µM.
Assay [6] concerns the target Platelet-derived growth factor receptor alpha (Homo sapiens, UniProt P16234). The following applies: at 1 µM.
Assay [7] deals with Vascular endothelial growth factor receptor 1 (Homo sapiens) (UniProt P17948). The following applies: at 1 µM.
Assay [8] deals with Mitogen-activated protein kinase kinase kinase kinase 4 (Homo sapiens, UniProt O95819). The following applies: at 1 µM.
The target of assay [9] is Receptor-interacting serine/threonine-protein kinase 2 (Homo sapiens, UniProt O43353). The following applies: at 1 µM.
The target in assay [10] is Calcium/calmodulin-dependent protein kinase type II subunit alpha (Homo sapiens, UniProt Q9UQM7). The experiment in a line: Selectivity interaction (SelectScreen kinase panel (Invitrogen)) EUB0000133b CAMK2A. The following applies: at 1 µM.
Assay [11] addresses MAP kinase-activated protein kinase 3 (Homo sapiens) (UniProt Q16644). Kind of assay: Selectivity interaction (SelectScreen kinase panel (Invitrogen)) EUB0000133b MAPKAPK3. The following applies: at 1 µM.
The target of assay [12] is Tyrosine-protein kinase Fgr (Homo sapiens) (UniProt P09769). Kind of assay: Selectivity interaction (SelectScreen kinase panel (Invitrogen)) EUB0000133b FGR. The following applies: at 1 µM.
Assay [13] addresses Fibroblast growth factor receptor 2 (Homo sapiens) (UniProt P21802). The experiment in a line: Selectivity interaction (SelectScreen kinase panel (Invitrogen)) EUB0000133b FGFR2. The following applies: at 1 µM.
In assay [14] the target is Ephrin type-A receptor 4 (Homo sapiens, UniProt P54764). The experiment in a line: Selectivity interaction (SelectScreen kinase panel (Invitrogen)) EUB0000133b EPHA4. The following applies: at 1 µM.
In assay [15] the target is Ephrin type-A receptor 2 (Homo sapiens) (UniProt P29317). The experiment in a line: Selectivity interaction (SelectScreen kinase panel (Invitrogen)) EUB0000133b EPHA2. The following applies: at 1 µM.
In assay [16] the target is NT-3 growth factor receptor (Homo sapiens, UniProt Q16288). Kind of assay: Selectivity interaction (SelectScreen kinase panel (Invitrogen)) EUB0000133b NTRK3. The following applies: at 1 µM.
Assay [17] concerns the target Tyrosine-protein kinase Blk (Homo sapiens) (UniProt P51451). The experiment in a line: Selectivity interaction (SelectScreen kinase panel (Invitrogen)) EUB0000133b BLK. The following applies: at 1 µM.
For assay [18], the target named is T1, Dual specificity protein kinase TTK (Homo sapiens) (UniProt P33981).
T1 sequence (whole entry): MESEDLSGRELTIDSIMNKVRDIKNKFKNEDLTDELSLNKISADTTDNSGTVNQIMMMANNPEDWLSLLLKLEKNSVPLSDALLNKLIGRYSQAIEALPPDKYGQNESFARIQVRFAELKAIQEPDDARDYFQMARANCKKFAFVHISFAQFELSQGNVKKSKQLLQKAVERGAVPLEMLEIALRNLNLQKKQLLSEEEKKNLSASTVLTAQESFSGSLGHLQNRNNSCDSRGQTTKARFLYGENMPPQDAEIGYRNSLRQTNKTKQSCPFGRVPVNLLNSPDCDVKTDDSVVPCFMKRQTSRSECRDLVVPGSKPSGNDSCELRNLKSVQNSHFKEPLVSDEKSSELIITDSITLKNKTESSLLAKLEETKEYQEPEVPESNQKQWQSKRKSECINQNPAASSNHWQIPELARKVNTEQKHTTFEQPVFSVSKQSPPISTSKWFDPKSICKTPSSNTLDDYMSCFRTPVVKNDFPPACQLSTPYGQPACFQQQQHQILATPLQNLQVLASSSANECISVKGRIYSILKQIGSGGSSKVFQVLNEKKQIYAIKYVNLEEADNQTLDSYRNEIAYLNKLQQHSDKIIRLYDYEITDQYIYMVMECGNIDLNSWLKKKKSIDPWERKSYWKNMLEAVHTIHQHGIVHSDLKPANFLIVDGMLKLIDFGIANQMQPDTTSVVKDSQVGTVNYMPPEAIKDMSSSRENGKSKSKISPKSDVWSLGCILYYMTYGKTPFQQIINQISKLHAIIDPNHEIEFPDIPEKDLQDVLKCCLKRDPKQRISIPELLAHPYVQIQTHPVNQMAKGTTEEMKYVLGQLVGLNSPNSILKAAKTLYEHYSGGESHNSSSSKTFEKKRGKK
The experiment in a line: Selectivity interaction (Ambit kinase binding assay panel) EUB0000608a TTK. The following applies: at 10 µM.

Assay [19] has as its target T2, Serine/threonine-protein kinase PLK4 (Homo sapiens) (UniProt O00444).
T2 sequence (whole entry): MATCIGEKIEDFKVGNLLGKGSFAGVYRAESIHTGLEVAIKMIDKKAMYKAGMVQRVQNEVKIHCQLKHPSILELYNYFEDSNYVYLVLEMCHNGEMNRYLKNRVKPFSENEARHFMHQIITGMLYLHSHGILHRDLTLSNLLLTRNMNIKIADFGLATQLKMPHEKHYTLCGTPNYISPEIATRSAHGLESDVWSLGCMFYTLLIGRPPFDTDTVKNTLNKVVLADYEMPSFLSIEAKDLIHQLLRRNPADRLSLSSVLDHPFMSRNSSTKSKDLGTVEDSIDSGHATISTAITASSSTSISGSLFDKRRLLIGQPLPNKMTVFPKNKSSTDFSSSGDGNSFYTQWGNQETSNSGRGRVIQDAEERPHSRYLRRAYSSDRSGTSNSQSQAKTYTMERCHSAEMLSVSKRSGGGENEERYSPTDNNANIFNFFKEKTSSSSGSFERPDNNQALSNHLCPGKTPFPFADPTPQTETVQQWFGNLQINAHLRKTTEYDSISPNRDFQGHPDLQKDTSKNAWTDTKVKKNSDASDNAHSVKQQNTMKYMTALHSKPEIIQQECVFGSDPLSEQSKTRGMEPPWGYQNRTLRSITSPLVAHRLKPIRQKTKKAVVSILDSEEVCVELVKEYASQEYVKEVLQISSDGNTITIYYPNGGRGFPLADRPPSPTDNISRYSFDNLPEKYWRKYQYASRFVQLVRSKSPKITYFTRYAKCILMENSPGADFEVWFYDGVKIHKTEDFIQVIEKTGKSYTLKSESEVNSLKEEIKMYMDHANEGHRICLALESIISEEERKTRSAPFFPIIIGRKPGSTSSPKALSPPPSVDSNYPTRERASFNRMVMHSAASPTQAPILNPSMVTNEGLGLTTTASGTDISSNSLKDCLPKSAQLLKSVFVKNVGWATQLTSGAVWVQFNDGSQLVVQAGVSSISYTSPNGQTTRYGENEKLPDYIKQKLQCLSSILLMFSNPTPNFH
Kind of assay: Selectivity interaction (Ambit kinase binding assay panel) EUB0000608a PLK4. The following applies: at 10 µM.

In assay [20] the target is T3, Cyclin-G-associated kinase (Homo sapiens) (UniProt O14976).
T3 sequence (whole entry): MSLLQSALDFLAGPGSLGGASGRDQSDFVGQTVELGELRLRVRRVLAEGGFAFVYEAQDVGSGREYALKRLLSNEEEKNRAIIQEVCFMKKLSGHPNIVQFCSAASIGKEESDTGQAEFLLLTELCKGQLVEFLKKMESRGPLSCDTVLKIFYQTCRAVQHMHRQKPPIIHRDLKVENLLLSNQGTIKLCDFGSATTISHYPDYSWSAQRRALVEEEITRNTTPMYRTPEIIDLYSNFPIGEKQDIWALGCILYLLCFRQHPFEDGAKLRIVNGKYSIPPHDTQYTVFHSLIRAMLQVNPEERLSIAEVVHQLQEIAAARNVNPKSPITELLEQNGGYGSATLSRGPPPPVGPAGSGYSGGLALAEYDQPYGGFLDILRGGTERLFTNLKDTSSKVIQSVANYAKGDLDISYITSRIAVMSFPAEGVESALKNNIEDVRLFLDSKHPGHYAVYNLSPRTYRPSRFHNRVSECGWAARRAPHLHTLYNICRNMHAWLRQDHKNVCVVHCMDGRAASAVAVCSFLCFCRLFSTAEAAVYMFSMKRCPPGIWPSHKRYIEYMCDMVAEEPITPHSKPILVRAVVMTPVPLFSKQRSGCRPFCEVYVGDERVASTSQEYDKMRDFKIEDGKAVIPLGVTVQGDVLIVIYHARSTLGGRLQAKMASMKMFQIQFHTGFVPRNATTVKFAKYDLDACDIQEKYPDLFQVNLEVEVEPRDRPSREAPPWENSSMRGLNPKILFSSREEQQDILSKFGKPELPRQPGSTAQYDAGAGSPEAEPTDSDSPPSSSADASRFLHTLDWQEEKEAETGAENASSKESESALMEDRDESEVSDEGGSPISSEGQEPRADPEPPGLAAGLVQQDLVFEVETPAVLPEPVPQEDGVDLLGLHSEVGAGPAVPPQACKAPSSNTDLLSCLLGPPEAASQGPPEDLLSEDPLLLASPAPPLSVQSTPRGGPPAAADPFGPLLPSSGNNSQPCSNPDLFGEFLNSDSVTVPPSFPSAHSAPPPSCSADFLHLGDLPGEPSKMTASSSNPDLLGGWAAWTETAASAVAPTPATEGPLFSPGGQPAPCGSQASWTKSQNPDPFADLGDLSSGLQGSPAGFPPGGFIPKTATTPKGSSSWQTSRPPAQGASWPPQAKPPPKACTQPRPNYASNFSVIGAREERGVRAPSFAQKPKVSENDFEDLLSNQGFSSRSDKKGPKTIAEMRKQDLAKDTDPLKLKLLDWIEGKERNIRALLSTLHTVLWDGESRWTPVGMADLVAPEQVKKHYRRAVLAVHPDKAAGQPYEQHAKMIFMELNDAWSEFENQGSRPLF
Kind of assay: Selectivity interaction (Ambit kinase binding assay panel) EUB0000608a GAK. The following applies: at 10 µM.

For assay [21], the target named is Serine/threonine-protein kinase PLK3 (Homo sapiens, UniProt Q9H4B4). Kind of assay: Selectivity interaction (Ambit kinase binding assay panel) EUB0000608a PLK3. The following applies: at 10 µM.
Assay [22] deals with Receptor-type tyrosine-protein kinase FLT3 (Homo sapiens) (UniProt P36888). Kind of assay: Selectivity interaction (Ambit kinase binding assay panel) EUB0000608a FLT3. The following applies: at 10 µM.
Assay [23] deals with Focal adhesion kinase 1 (Homo sapiens, UniProt Q05397). The experiment in a line: Selectivity interaction (Ambit kinase binding assay panel) EUB0000608a PTK2. The following applies: at 10 µM.

This is an account of results in ChEMBL document CHEMBL5465560, “Selectivity Literature for EUbOPEN Chemogenomic Library” (2024).

Sequence of Serine/threonine-protein kinase PLK3 (Q9H4B4 whole entry, looked up): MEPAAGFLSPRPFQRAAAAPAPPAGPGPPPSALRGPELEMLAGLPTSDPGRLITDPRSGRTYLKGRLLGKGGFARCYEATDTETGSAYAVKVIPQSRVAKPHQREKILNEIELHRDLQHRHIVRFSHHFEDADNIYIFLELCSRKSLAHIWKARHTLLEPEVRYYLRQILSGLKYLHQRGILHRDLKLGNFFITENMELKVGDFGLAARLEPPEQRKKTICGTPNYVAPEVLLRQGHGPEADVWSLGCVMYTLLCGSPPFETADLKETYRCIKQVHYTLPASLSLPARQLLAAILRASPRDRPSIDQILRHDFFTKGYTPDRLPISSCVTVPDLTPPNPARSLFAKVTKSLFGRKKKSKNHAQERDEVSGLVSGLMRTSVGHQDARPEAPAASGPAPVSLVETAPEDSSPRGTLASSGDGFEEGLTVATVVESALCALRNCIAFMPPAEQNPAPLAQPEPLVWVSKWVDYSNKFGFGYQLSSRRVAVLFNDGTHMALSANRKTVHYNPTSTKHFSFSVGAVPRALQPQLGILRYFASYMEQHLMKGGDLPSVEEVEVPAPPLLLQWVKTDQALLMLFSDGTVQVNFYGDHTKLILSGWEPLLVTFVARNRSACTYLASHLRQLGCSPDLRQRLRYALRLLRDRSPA
Sequence of Misshapen-like kinase 1 (Q8N4C8 whole entry, looked up): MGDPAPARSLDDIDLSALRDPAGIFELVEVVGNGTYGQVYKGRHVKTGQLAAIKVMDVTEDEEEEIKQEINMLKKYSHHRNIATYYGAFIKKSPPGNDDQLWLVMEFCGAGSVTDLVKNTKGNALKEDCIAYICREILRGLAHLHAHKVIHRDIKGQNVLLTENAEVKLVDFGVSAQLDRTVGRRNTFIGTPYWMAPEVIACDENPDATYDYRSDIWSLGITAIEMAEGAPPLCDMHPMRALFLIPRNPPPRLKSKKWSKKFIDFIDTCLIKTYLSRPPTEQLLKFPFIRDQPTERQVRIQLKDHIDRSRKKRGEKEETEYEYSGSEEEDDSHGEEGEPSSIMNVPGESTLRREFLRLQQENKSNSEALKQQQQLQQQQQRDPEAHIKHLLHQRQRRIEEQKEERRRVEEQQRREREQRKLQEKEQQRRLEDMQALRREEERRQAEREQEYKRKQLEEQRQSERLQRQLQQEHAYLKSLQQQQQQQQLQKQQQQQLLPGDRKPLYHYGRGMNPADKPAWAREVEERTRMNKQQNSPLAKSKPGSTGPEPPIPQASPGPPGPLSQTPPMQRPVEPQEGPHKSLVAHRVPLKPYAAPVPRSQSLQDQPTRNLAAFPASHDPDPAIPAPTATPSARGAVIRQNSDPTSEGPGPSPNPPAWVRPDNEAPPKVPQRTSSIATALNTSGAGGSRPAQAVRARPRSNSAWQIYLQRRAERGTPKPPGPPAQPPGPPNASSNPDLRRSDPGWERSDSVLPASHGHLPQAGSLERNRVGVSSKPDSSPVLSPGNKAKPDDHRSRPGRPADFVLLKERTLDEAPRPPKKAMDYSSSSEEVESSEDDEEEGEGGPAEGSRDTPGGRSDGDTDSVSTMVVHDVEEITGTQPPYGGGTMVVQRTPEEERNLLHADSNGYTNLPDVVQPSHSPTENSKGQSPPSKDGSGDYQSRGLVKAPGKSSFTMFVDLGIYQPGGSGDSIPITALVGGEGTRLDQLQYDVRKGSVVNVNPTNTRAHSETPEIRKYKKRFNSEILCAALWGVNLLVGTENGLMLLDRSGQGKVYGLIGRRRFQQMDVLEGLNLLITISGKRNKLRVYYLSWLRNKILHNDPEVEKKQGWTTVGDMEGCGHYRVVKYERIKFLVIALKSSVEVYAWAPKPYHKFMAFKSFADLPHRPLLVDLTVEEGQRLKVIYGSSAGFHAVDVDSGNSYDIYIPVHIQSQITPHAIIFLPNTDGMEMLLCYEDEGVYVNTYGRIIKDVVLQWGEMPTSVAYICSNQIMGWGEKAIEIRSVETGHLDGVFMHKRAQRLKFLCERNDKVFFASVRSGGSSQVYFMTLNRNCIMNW
Sequence of RAF proto-oncogene serine/threonine-protein kinase (Homo sapiens) (P04049 whole entry): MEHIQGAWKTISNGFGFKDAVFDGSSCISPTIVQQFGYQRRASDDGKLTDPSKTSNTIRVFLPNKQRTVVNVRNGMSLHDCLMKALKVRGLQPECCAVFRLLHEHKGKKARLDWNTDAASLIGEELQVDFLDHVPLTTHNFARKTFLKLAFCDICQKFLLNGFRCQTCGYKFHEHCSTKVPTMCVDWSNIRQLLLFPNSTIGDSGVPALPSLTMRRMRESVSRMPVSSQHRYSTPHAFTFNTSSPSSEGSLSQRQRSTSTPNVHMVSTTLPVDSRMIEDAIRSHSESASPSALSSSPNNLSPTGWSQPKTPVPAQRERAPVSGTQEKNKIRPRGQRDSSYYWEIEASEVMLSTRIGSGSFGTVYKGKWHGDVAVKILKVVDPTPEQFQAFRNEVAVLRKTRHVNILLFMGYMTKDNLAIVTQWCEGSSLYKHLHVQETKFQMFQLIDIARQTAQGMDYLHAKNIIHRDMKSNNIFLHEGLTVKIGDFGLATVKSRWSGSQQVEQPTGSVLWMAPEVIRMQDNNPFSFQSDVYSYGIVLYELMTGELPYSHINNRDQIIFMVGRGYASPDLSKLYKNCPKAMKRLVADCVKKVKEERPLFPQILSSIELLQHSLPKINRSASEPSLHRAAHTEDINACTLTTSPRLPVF
Sequence of Ephrin type-A receptor 4 (P54764 whole entry): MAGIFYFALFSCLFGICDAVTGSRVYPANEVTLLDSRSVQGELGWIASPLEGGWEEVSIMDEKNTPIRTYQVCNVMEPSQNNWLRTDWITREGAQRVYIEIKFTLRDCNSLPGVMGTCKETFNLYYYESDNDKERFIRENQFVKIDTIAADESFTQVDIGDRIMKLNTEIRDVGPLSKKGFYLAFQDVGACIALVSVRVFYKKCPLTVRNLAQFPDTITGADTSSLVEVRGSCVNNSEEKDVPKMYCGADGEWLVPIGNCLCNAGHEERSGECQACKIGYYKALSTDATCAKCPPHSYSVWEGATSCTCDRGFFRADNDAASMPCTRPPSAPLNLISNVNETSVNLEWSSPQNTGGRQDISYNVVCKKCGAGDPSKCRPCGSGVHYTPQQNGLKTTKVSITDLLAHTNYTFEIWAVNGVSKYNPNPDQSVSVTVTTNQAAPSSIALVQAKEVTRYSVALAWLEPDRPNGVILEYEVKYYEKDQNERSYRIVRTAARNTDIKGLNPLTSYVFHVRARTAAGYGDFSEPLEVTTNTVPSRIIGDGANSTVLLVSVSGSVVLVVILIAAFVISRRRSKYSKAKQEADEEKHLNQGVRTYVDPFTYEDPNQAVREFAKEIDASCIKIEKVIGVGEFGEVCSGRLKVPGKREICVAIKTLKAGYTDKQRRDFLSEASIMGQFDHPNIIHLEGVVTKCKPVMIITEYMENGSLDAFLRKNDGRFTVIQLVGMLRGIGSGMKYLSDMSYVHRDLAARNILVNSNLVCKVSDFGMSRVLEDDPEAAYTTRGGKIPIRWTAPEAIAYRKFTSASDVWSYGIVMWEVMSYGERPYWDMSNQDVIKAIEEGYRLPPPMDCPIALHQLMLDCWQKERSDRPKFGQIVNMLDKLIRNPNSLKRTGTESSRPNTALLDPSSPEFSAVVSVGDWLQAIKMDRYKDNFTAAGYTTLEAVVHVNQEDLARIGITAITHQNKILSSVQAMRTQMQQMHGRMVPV
Sequence of Mitogen-activated protein kinase kinase kinase kinase 4 (O95819 2-1239 limits assumed): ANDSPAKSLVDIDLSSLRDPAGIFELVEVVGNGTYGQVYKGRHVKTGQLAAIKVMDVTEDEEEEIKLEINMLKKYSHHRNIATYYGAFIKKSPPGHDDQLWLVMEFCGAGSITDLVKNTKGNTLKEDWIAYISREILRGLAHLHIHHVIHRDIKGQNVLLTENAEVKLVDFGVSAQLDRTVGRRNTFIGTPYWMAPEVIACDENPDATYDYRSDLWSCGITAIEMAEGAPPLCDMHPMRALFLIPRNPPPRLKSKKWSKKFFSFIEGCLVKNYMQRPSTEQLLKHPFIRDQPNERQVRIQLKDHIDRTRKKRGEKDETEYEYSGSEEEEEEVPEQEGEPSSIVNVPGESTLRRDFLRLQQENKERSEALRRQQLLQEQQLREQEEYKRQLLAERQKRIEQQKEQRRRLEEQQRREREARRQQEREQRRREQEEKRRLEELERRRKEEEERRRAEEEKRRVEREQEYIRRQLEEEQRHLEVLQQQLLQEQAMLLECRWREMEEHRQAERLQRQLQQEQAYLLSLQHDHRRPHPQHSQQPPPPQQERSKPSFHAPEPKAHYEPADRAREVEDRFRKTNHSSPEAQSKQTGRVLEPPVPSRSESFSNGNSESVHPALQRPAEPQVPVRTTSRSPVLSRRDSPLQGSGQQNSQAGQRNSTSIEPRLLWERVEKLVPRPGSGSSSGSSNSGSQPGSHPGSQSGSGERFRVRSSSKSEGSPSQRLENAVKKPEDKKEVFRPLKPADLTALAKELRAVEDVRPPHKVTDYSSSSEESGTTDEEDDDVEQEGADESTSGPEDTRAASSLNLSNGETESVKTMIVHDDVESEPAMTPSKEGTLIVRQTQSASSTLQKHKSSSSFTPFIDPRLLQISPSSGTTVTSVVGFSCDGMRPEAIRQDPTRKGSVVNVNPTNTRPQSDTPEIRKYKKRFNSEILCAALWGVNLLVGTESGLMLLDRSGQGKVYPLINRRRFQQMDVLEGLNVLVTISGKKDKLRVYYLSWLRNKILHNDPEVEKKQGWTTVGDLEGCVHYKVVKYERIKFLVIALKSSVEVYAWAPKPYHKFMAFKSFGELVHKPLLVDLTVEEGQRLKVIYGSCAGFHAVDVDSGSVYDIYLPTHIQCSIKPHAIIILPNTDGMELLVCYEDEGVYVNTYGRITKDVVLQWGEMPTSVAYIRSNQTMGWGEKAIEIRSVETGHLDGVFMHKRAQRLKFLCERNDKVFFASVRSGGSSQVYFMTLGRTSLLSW

With `OCCn1cc(-c2ccc3c(c2)CCC3=NO)c(-c2ccncc2)n1`, the % of control in assay [1] was determined as 8%.

Turning to `Cc1cccc(-c2[nH]c(CNc3ccccc3F)nc2-c2ccc3ncnn3c2)n1`, the % of residual activity was found to be 11% in [2]; 21% in assay [3]; 28% in assay [4]; 43% in [5]; 47% in assay [6]; 38% in assay [7]. The figures for the % of residual activity in [8] and in assay [9] were 41% and 7%, respectively.

As to `COc1cc(Nc2ncc3c(n2)-c2ccc(Cl)cc2C(c2c(F)cccc2OC)=NC3)ccc1C(=O)O`, the % of inhibition in assay [10] was 95%; in [11], 91%; in assay [12] it was 97%; in assay [13], 90%; in assay [14], 94%; in assay [15] it was 100%. Besides, the % of inhibition in assay [16] came out at 91%; in assay [17], 92%.

In the case of `CCOc1cc(N2CCC(O)CC2)ccc1Nc1ncc2c(n1)N(C1CCCC1)CCC(=O)N2C`, the % of control amounted to 3.2% in assay [18]; 27% in assay [19]; 2% in [20]; 15% in assay [21]; 0% in assay [22]; 24% in assay [23].
